The structures appear in SMILES notation.

For one data set, the target named is Histone deacetylase 2 (Homo sapiens, UniProt Q92769). As to the kind of experiment: Inhibition of human HDAC2 (379 to 382 residues) using RHKKAc-AMC fluorogenic peptide as substrate by fluorescence assay.
The subject of data set [1] is GL26. As to the kind of experiment: Inhibition of HDAC in mouse GL26 cells assessed as increase in alpha tubulin level at 0.62 to 1.25 uM incubated for 48 hrs by Western blot analysis. Type of data set: cell-based. The following applies: dose 0.62-1.25 µM, DDE = dose-dependent effect. (In general: A western blot detects proteins with antibodies after separation by electrophoresis.)

Data set [2] is described as follows: Toxicity in C57BL6 mouse xenografted with mouse GL26 cells as assessed as last day of survival at 50 mg/kg, ip for 14 days treatment started at 5 days post-infection (Rvb=14 days). The data set is classed as organism-based. As to conditions: in vivo, 336 h, time 14 day.
Data set [3] is described as follows: Toxicity in mouse bearing intracranial tumor assessed as last day of survival at 25 mg/kg, ip treatment started at 7 dpi (Rvb=19 days). Type of data set: organism-based. As to conditions: in vivo, 456 h.
A short description of data set [4]: Toxicity in mouse bearing intracranial tumor assessed as median survival time at 50 mg/kg, ip for 10 days (Rvb= 13.8 days). Type of data set: organism-based. The following applies: in vivo, 240 h, time 10 day.
Data set [5] concerns GL26. Put plainly: Inhibition of HDAC in mouse GL26 cells assessed as increase in histone H3 acetylation at 0.62 to 1.25 uM incubated for 48 hrs by Western blot analysis. The data set is classed as cell-based. The following applies: dose 0.62-1.25 µM, DDE = dose-dependent effect.
In data set [6] the target is T1, Amine oxidase [flavin-containing] A (Homo sapiens, UniProt P21397).
T1 sequence (P21397 whole entry): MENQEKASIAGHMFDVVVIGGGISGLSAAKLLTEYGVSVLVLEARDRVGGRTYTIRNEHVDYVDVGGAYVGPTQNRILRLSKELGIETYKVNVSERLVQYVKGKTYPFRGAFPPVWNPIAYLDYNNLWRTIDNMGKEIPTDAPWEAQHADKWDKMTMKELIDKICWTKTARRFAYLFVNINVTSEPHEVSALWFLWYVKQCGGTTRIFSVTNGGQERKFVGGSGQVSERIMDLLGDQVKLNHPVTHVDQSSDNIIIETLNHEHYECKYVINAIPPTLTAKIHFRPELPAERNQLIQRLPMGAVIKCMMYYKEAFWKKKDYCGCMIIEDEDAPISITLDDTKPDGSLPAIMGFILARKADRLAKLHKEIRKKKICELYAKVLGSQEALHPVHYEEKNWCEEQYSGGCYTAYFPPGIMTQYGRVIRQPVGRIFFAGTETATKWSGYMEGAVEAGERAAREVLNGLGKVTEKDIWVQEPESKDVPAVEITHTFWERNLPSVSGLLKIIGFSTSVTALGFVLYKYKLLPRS
As to the kind of experiment: Inhibition of MAO-A (unknown origin) expressed in mouse GL26 cells using 14C 5-hydroxytryptamine as substrate pre-incubated for 20 mins followed by substrate addition measured after 20 mins by liquid scintillation spectroscopy. Type of data set: cell-based.

Data set [7] concerns GL26. Put plainly: Induction of apoptosis in mouse GL26 cells assessed as proteolytic cleavage of PARP1 incubated for 48 hrs by Western blot analysis. As to conditions: dose 1.25-5 µM, DDE = dose-dependent effect. The data set is classed as functional, cell-based.
Data set [8] in a line: Toxicity in mouse bearing intracranial tumor assessed as last day of survival at 25 mg/kg,ip for 10 days (Rvb=16 days). As to conditions: in vivo, 240 h, time 10 day. The data set is classed as organism-based.
A short description of data set [9]: Toxicity in mouse bearing intracranial tumor assessed as median survival time at 25 mg/kg, ip for 10 days (Rvb= 13.8 days). Type of data set: organism-based. The following applies: in vivo, 240 h, time 10 day.
In data set [10] the target is Lysine-specific histone demethylase 1A (Homo sapiens, UniProt O60341). Put plainly: Inhibition of human LSD1 assessed as demethylase activity of LSD1 using Histone H3(1-21)K4me2 peptide as substrate incubated for 30 mins followed by substrate addition by amplex red dye based HRP-coupled assay.

Histone deacetylase 2, sequence (Q92769 whole entry, the tested form may be a part): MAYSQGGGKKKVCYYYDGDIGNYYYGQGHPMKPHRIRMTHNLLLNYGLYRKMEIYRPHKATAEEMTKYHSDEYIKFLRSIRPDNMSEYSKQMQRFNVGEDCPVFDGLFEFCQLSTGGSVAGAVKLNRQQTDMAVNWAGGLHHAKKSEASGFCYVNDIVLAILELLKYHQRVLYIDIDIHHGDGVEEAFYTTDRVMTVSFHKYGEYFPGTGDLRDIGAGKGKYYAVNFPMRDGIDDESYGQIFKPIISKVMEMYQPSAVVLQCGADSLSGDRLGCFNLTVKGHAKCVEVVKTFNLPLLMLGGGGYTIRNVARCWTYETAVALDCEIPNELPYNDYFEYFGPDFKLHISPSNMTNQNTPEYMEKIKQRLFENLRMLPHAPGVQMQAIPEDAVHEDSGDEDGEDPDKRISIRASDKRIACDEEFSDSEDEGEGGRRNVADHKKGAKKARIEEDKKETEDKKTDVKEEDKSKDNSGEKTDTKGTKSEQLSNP

In general, IC50 refers to the concentration needed to halve the response being measured. Lower therefore signals higher potency. Turning to `C#CCN(C)CCCOc1ccc(NC(=O)CCCCCCC(=O)NO)cc1Cl`, the 50% inhibitory concentration (IC50) on Histone deacetylase 2 was determined as 460 nM; in [6], 30 nM. Further, the Activity result in the data set with GL26 [1], in the data set with GL26 [5] and in the data set on GL26 [7] was “Dde” each time. The Survival in data set [2] was found to be 16 days; in data set [3], 20 days; in data set [4] it was 14.4 days.
As a reminder, the EC50 is the concentration at which the effect is half-maximal. `C#CCN(C)CCCOc1cc(NCc2ccc(/C=C/C(=O)NO)cc2)ccc1Cl`: the Survival was determined as 21 days in data set [8], 16.4 days in data set [9], 14 days in data set [2] and 22 days in [3]. The results for the half-inhibitory concentration (IC50) (against Histone deacetylase 2; in data set [6]) were 1160 nM and 4 nM, respectively. Also, the concentration giving a half-maximal response (EC50) in [10] turned out to be 10000 nM.

(Values after ChEMBL document CHEMBL5154693, “N-Methylpropargylamine-Conjugated Hydroxamic Acids as Dual Inhibitors of Monoamine Oxidase A and Histone Deacetylase for Glioma Treatment” (J Med Chem, 2022).)
